Measured values reported in patent publication US20080220103A1, “METHOD FOR TREATING/CONTROLLING/KILLING FUNGI AND BACTERIA ON LIVING ANIMALS” (priority 2005, published 2008).
≈ marks a conversion by molar mass, not a printed value. Where “and” joins values, the source holds several entries; their conditions need not be identical. Identical values can stand only once. Like-named read-outs stand apart in the source and are kept apart here.

Tests used:
E. floccosum [1] = test: MIC, modified CLSI M38A broth dilution; type: cell-based, Epidermophyton floccosum
Procedure: (§1) Minimum Inhibitory Concentration (MIC): Minimum inhibitory concentrations of synthetic and semisynthetic and natural products against dermatophytes were determined using a modification of the Clinical Laboratory Standards Institute (CLSI, formerly National Committee of Clinical Laboratory Standards, NCCLS) M38A standard method for dermatophytes, while MIC of these agents against Candida species were determined using the CLSI M27-A2 methodology. The method used to determine the MIC against bacteria was based on the CLSI document M7-A7.
(§2) For dermatophytes, serial dilutions of terbinafine, tolnaftate were prepared in a range of 0.004-2 μg/ml, while for miconazole concentrations ranged between 0.015-8 μg/ml. Finally, for essential oils, the concentrations tested were between 0.03-16 μg/ml. The only exception was tea tree oil where dilutions were prepared in a range of 0.0078-4 μg/ml. The MIC was read at 4 days post inoculation and defined as the lowest concentration of an agent to inhibit 80% of fungal growth as compared to the growth control (Table 2).

T. rubrum = test: MIC, modified CLSI M38A broth dilution; type: cell-based, Trichophyton rubrum
Procedure: as §1, §2

T. mentagrophytes = test: MIC, modified CLSI M38A broth dilution; type: cell-based, Trichophyton mentagrophytes
Procedure: as §1, §2

All dermatophytes [2] = test: MIC, modified CLSI M38A, pooled dermatophytes; type: cell-based, E. floccosum, T. rubrum, T. mentagrophytes
Procedure: as §1, §2
(§3) In the following Tables, MIC50 and MIC90 are defined as the minimal concentrations of a compound that can inhibit 50% and 90% of the tested organisms, respectively.

E. floccosum [3] = test: Minimum fungicidal concentration (Canton et al.); type: cell-based, Epidermophyton floccosum; conditions: for MFC: Epidermophyton floccosum
Procedure: (§4) Minimum fungicidal concentration (MFC): The minimum fungicidal concentrations of various agents were determined using the technique described by Canton et al. (Antimicrob Agents Chemother. 2004 8:2477-82). In that method, fungal conidia were collected following growth on potato dextrose agar (PDA) plates and were used to inoculate 96-well plates containing different concentrations of agents. Following incubation at 35° C. for 4 days (for dermatophytes) or 24 hours (for yeast), wells showing no visible growth were cultured to determine the MFC (defined as the lowest concentration of a given agent that kills>99.999% of fungal conidia or spores). The MFC value represents the level of the agent at which spores or conidia were killed.

All dermatophytes [4] = test: Minimum fungicidal concentration, pooled dermatophytes; type: cell-based, E. floccosum, T. rubrum, T. mentagrophytes; conditions: All dermatophytes, n = 18
Procedure: as §4, §3

C. albicans = test: MIC, CLSI M27-A2; type: cell-based, Candida albicans
Procedure: as §1
(§5) The remaining essential oils were prepared in a dilution range of 0.03-16 μg/ml. For Candida the MIC was read at 24 hours and defined as the lowest concentration to inhibit 50% of fungal growth as compared to the growth control (Table 4).

C. parapsilosis = test: MIC, CLSI M27-A2; type: cell-based, Candida parapsilosis
Procedure: as §1, §5

All yeasts = test: MIC, CLSI M27-A2, pooled yeasts; type: cell-based, C. albicans, C. parapsilosis; conditions: n = 12
Procedure: as §1, §5, §3

S. aureus = test: MIC, CLSI M7-A7, Mueller-Hinton; type: cell-based, Staphylococcus aureus; conditions: for MIC Range: n = 6 printed
Procedure: as §1
(§6) For bacterial species, the medium used to evaluate the antibacterial activity of agents and essential oils was Mueller-Hinton (Oxoid Ltd., Basingstoke, Hampshire, England). Serial dilutions of miconazole, terbinafine, and tolnaftate were prepared in a range of 0.125-64 μg/ml and serial dilutions of tea tree oil were prepared in a range of 0.0078-4 μg/ml, while those for the rest of the essential oils were prepared in a range 0.031-16 μg/ml.

S. epidermidis = test: MIC, CLSI M7-A7, Mueller-Hinton; type: cell-based; conditions: Staphylococcus epidermidis
Procedure: as §1, §6

[5] = system: All bacteria (Staphylococcus species); test: MIC, CLSI M7-A7, pooled bacteria; type: cell-based, S. aureus, S. epidermidis; conditions: Staphylococcus, n = 12
Procedure: as §1, §6, §3

[6] = Epidermophyton floccosum, E. floccosum, n = 6
[7] = Trichophyton rubrum, T. rubrum, n = 6
[8] = Trichophyton mentagrophytes, T. mentagrophytes, n = 6
[9] = Candida albicans, C. albicans, n = 6
[10] = Lodderomyces parapsilosis, C. parapsilosis, n = 6
[11] = Staphylococcus aureus, S. aureus

Cc1cccc(N(C)C(=S)Oc2ccc3ccccc3c2)c1 [Tolnaftate, tolnaftate]
MIC Range (E. floccosum [1]; E. floccosum, n = 6): 0.06 to 0.125 µg/mL | MIC (E. floccosum [1]; Epidermophyton floccosum, E. floccosum strain 1666): 0.06 µg/mL (≈ 0.195 µM) | MIC (E. floccosum [1]; Epidermophyton floccosum, E. floccosum strain 1798): 0.06 µg/mL (≈ 0.195 µM) | MIC (E. floccosum [1]; Epidermophyton floccosum, E. floccosum strain 1925): 0.06 µg/mL (≈ 0.195 µM) | MIC (E. floccosum [1]; Epidermophyton floccosum, E. floccosum strain 1926): 0.125 µg/mL (≈ 0.407 µM) | MIC (E. floccosum [1]; Epidermophyton floccosum, E. floccosum strain 1961): 0.125 µg/mL (≈ 0.407 µM) | MIC (E. floccosum [1]; Epidermophyton floccosum, E. floccosum strain 2165): 0.06 µg/mL (≈ 0.195 µM) | MIC50 (E. floccosum [1]; [6]): 0.06 µg/mL (≈ 0.195 µM) | MIC90 (E. floccosum [1]; [6]): 0.125 µg/mL (≈ 0.407 µM) | MIC Range (T. rubrum; T. rubrum, n = 6): 0.008 to 0.015 µg/mL | MIC (T. rubrum; Trichophyton rubrum, T. rubrum strain 1967): 0.015 µg/mL (≈ 0.0488 µM) | MIC (T. rubrum; Trichophyton rubrum, T. rubrum strain 2098): 0.015 µg/mL (≈ 0.0488 µM) | MIC (T. rubrum; Trichophyton rubrum, T. rubrum strain 2246): 0.008 µg/mL (≈ 0.026 µM) | MIC (T. rubrum; Trichophyton rubrum, T. rubrum strain 8063): 0.008 µg/mL (≈ 0.026 µM) | MIC (T. rubrum; Trichophyton rubrum, T. rubrum strain 8071): 0.015 µg/mL (≈ 0.0488 µM) | MIC (T. rubrum; Trichophyton rubrum, T. rubrum strain 8092): 0.015 µg/mL (≈ 0.0488 µM) | MIC50 (T. rubrum; [7]): 0.015 µg/mL (≈ 0.0488 µM) | MIC90 (T. rubrum; [7]): 0.015 µg/mL (≈ 0.0488 µM) | MIC Range (T. mentagrophytes; T. mentagrophytes, n = 6): 0.008 to 0.125 µg/mL | MIC (T. mentagrophytes; Trichophyton mentagrophytes, T. mentagrophytes strain 1720): 0.008 µg/mL (≈ 0.026 µM) | MIC (T. mentagrophytes; Trichophyton mentagrophytes, T. mentagrophytes strain 2124): 0.06 µg/mL (≈ 0.195 µM) | MIC (T. mentagrophytes; Trichophyton mentagrophytes, T. mentagrophytes strain 2125): 0.06 µg/mL (≈ 0.195 µM) | MIC (T. mentagrophytes; Trichophyton mentagrophytes, T. mentagrophytes strain 2126): 0.004 µg/mL (≈ 0.013 µM) | MIC (T. mentagrophytes; Trichophyton mentagrophytes, T. mentagrophytes strain 2127): 0.06 µg/mL (≈ 0.195 µM) | MIC (T. mentagrophytes; Trichophyton mentagrophytes, T. mentagrophytes strain 2128): 0.125 µg/mL (≈ 0.407 µM) | MIC50 (T. mentagrophytes; [8]): 0.06 µg/mL (≈ 0.195 µM) | MIC90 (T. mentagrophytes; [8]): 0.125 µg/mL (≈ 0.407 µM) | MIC50 (All dermatophytes [2]; n = 18): 0.06 µg/mL (≈ 0.195 µM) | MIC90 (All dermatophytes [2]; n = 18): 0.125 µg/mL (≈ 0.407 µM) | MIC Range (All dermatophytes [2]; n = 18, listed as tolnaftate): 0.008 to 0.125 µg/mL | MFC range (row MIC Range) (E. floccosum [3]; E. floccosum, n = 6): 0.25 to 0.5 µg/mL | MFC (E. floccosum [3]; E. floccosum strain 1666, read-out: MFC): 0.25 µg/mL (≈ 0.813 µM) | MFC (E. floccosum [3]; E. floccosum strain 1798, read-out: MFC): 0.25 µg/mL (≈ 0.813 µM) | MFC (E. floccosum [3]; E. floccosum strain 1925, read-out: MFC): 0.25 µg/mL (≈ 0.813 µM) | MFC (E. floccosum [3]; E. floccosum strain 1926, read-out: MFC): 0.5 µg/mL (≈ 1.63 µM) | MFC (E. floccosum [3]; E. floccosum strain 1961, read-out: MFC): 0.5 µg/mL (≈ 1.63 µM) | MFC (E. floccosum [3]; E. floccosum strain 2165, read-out: MFC): 0.25 µg/mL (≈ 0.813 µM) | MFC (E. floccosum [3]; E. floccosum, n = 6, read-out: MFC, row MIC50): 0.25 µg/mL (≈ 0.813 µM) | MFC (E. floccosum [3]; E. floccosum, n = 6, read-out: MFC, row MIC90): 0.5 µg/mL (≈ 1.63 µM) | MFC Range (All dermatophytes [4]): 0.06 to 1.0 µg/mL and 0.06 to 1 µg/mL | MFC Range (All dermatophytes [4]; listed as tolnaftate): 0.06 to 0.125 µg/mL | MFC (All dermatophytes [4]; read-out: MFC, row MIC50): 0.125 µg/mL (≈ 0.407 µM) | MFC (All dermatophytes [4]; read-out: MFC, row MIC90): 1 µg/mL (≈ 3.25 µM) | MIC (C. albicans; C. albicans strain 8280 (multi-resistant)): >64 µg/mL | MIC Range (C. albicans; C. albicans, n = 6): > 64 µg/mL | MIC (C. albicans; Candida albicans, 24 h, C. albicans strain 1740, 50% inhibition, 24 hours, read-out: MIC): > 64 µg/mL | MIC (C. albicans; Candida albicans, C. albicans strain 2108, read-out: MIC): 64 µg/mL (≈ 208 µM) | MIC (C. albicans; Candida albicans, C. albicans strain 2153, read-out: MIC): > 64 µg/mL | MIC (C. albicans; Candida albicans, C. albicans strain 8280 (multi-resistant), read-out: MIC): > 64 µg/mL | MIC (C. albicans; Candida albicans, C. albicans strain 8283, read-out: MIC): > 64 µg/mL | MIC (C. albicans; Candida albicans, C. albicans strain 8364, read-out: MIC): > 64 µg/mL | MIC50 (C. albicans; [9]): > 64 µg/mL | MIC90 (C. albicans; [9]): > 64 µg/mL | MIC Range (C. parapsilosis; C. parapsilosis, n = 6): 0.5 to 16 µg/mL | MIC (C. parapsilosis; Lodderomyces parapsilosis, C. parapsilosis strain 7629): 0.5 µg/mL (≈ 1.63 µM) | MIC (C. parapsilosis; Lodderomyces parapsilosis, C. parapsilosis strain 7668): 8 µg/mL (≈ 26 µM) | MIC (C. parapsilosis; Lodderomyces parapsilosis, C. parapsilosis strain 7672): 8 µg/mL (≈ 26 µM) | MIC (C. parapsilosis; Lodderomyces parapsilosis, C. parapsilosis strain 7995): 8 µg/mL (≈ 26 µM) | MIC (C. parapsilosis; Lodderomyces parapsilosis, C. parapsilosis strain 8148): 8 µg/mL (≈ 26 µM) | MIC (C. parapsilosis; Lodderomyces parapsilosis, C. parapsilosis strain 8442): 16 µg/mL (≈ 52 µM) | MIC (C. parapsilosis; Lodderomyces parapsilosis, C. parapsilosis, the other isolates (not #7629)): 8 to 16 µg/mL (≈ 26 to 52 µM) | MIC50 (C. parapsilosis; [10]): 8 µg/mL (≈ 26 µM) | MIC90 (C. parapsilosis; [10]): 8 µg/mL (≈ 26 µM) | MIC50 (All yeasts): 16 µg/mL (≈ 52 µM) | MIC90 (All yeasts): > 64 µg/mL | MIC (S. aureus; S. aureus strain 733): >64 µg/mL | MIC (S. aureus; S. aureus strain 734): >64 µg/mL | MIC (S. aureus; S. aureus strain 8470): >64 µg/mL | MIC Range (S. aureus; S. aureus, listed as TOLNAFTATE): >64 µg/mL | MIC Range (S. aureus; S. aureus, listed as tolnaftate): > 64 µg/mL | MIC50 (S. aureus; [11]): > 64 µg/mL | MIC90 (S. aureus; [11]): > 64 µg/mL | MIC (S. aureus; Staphylococcus aureus, S. aureus strain 730, 80% inhibition, 16 h, read-out: MIC): > 64 µg/mL | MIC (S. aureus; Staphylococcus aureus, S. aureus strain 732, read-out: MIC): > 64 µg/mL | MIC (S. epidermidis; S. epidermidis strain 8472, read-out: MIC): 2 µg/mL (≈ 6.51 µM) | MIC (S. epidermidis; S. epidermidis strain 8473, read-out: MIC): 16 µg/mL (≈ 52 µM) | MIC (S. epidermidis; S. epidermidis strain 8474, read-out: MIC): 2 µg/mL (≈ 6.51 µM) | MIC (S. epidermidis; S. epidermidis strain 8475, read-out: MIC): > 64 µg/mL | MIC (S. epidermidis; S. epidermidis strain 8476, read-out: MIC): > 64 µg/mL | MIC (S. epidermidis; S. epidermidis strain 8477, read-out: MIC): > 64 µg/mL | MIC (S. epidermidis; S. epidermidis, two strains, read-out: MIC values): 2 µg/mL (≈ 6.51 µM) | MIC50 (S. epidermidis; S. epidermidis, n = 6): 16 µg/mL (≈ 52 µM) | MIC90 (S. epidermidis; S. epidermidis, n = 6): > 64 µg/mL | MIC50 [5]: > 64 µg/mL | MIC90 [5]: > 64 µg/mL
